Data taken from article PMC5219024, “New acetylenic derivatives of betulin and betulone, synthesis and cytotoxic activity” (Medicinal Chemistry Research, 2016).
≈ marks a conversion by molar mass, not a printed value.

Tests used:
[1] = system: mouse melanoma (B16 2F2) cell line; parameters: method as in Hata et al., [2002]; details: ref Hata et al., [2002], read-out: anticancer effect IC50, B16 2F2; cited from earlier work
[2] = system: cyprid larvae of the barnacle Balanus albicostatus; parameters: method as in Chen et al., [2011]; details: ref Chen et al., [2011]; cited from earlier work
[3] = system: T47D (human breast cancer); parameters: method as in Boryczka et al. ([2013a], [b]); details: Neg = negative in the concentration used, ref Boryczka et al. ([2013a], [b]); cited from earlier work
[4] = system: HL-60 (human promyelocytic leukemia); assay: Antiproliferative assay in vitro (MTT), HL-60; format: cell-based; details: Homo sapiens; HL-60 cancer cell line; 96 h exposure; read-out: Cytotoxic activity IC50, HL-60
Protocol: The tested cell lines were obtained from the American Type Culture Collection (Rockville, Maryland, USA) and maintained at the Cell Culture Collection of the Institute of Immunology and Experimental Therapy (Wrocław, Poland). The cells were seeded in 96-well plates (Sarstedt, USA) at a density of 10^4 cells per well in 100 µL of culture medium overnight. […] The normal mouse fibroblasts BALB3T3 was cultured in Dulbecco’s modified Eagle’s medium (Sigma-Aldrich, Chemie GmbH, Steinheim, Germany) supplemented with 2 mM glutamine (Sigma-Aldrich, Chemie GmbH, Steinheim, Germany) and 10 % fetal calf serum FBS (Sigma-Aldrich, Chemie GmbH, Steinheim, Germany). The all culture media were supplemented with streptomycin (100 µg/mL) and penicillin (100 U/mL) (both antibiotics from Polfa, Tarchomin, Poland). The cell cultures were maintained at 37 °C in humid atmosphere saturated with 5 % CO2. The MTT assay was used for the cytotoxicity screening against leukemia cells growing in suspension culture. This assay was performed after 96 h of the leukemia cells to varying concentrations (ranging from 1 to 100 µg/mL) of the tested substances. The derivatives of betulin were dissolved in 10 % DMSO to concentration of 1 mg/mL, and next diluted in culture medium to reach the required concentrations. […] During the last 3–4 h of incubation 20 µl of MTT solution were added to each well (MTT: 3-(4,5-dimethylthiazol-2-yl)-2,5-diphenyl tetrazolium bromide; stock solution: 5 mg/mL). The pale yellow MTT is reduced to a navy blue formazan in the mitochondria of living cells. At the end of incubation time, 80 µL of the lysing mixture was added to each well (lysing mixture: 225 mL dimethylformamide, 67.5 g sodium dodecyl sulfate and 275 mL of distilled water). After 24 h are formed the crystals of formazan, which are insoluble in aqueous solutions. The formazan crystals had been dissolved. The optical densities were read on a Multiskan RC photometer at 570 nm wavelength. The compounds in given concentration were examined in triplicates in each experiment which was repeated 3–5 times. The results of cytotoxic activity in vitro were expressed as an IC50 in µg/mL.

[5] = system: CCRF/CEM (human leukemia); parameters: method as in Boryczka et al. ([2013a], [b]); details: Neg = negative in the concentration used, ref Boryczka et al. ([2013a], [b]); cited from earlier work
P388 (mouse leukemia) = system: P388 (mouse leukemia); parameters: method as in Boryczka et al. ([2013a], [b]); details: murine P388; Neg = negative in the concentration used; ref Boryczka et al. ([2013a], [b]); cited from earlier work
[6] = system: BALB3T3 normal mouse fibroblasts; parameters: method as in Boryczka et al. ([2013a], [b]); details: murine BALB3T3 normal fibroblasts; Neg = negative in the concentration used; ref Boryczka et al. ([2013a], [b]); cited from earlier work
SW707 (human colorectal) = system: SW707 (human colorectal); parameters: method as in Boryczka et al. ([2013a], [b]); details: Neg = negative in the concentration used, ref Boryczka et al. ([2013a], [b]); cited from earlier work

Structure (SMILES) | IC50 [1] | antifouling activity EC50 [2] | Cytotoxic activity IC50, T47D [3] | IC50 [4] | Cytotoxic activity IC50, CCRF/CEM [5] | Cytotoxic activity IC50, P388 (P388 (mouse leukemia)) | Cytotoxic activity IC50, BALB3T3 [6] | Cytotoxic activity IC50, SW707 (SW707 (human colorectal))
C=C(C)[C@@H]1CC[C@]2(CO)CC[C@]3(C)[C@H](CC[C@@H]4[C@@]5(C)CCC(=O)C(C)(C)[C@@H]5CC[C@]43C)[C@@H]12 [Betulone 2, lup-20(29)-en-28-ol-3-one] | 29.3 µM | 8.73 µg/mL |  |  |  |  |  | 
C=C(C)[C@@H]1CC[C@]2(COC(=O)CC)CC[C@]3(C)C(CCC4[C@@]5(C)CC[C@H](O)C(C)(C)C5CC[C@]43C)C12 (some centres unmarked) [Compound 3] |  |  | 12.1 ± 4.4 µg/mL | 29.3 ± 3.4 µg/mL (≈ 58.7 µM) | 8.1 ± 0.9 µg/mL | 3.3 ± 0.8 µg/mL | 32.3 ± 23.0 µg/mL | 29.2 ± 24.4 µg/mL
